Test results: US20170119034A1, “COMPOSITIONS AND METHODS FOR MODIFYING PERCEPTION OF SWEET TASTE” (University of Florida Research Foundation, Inc., priority 2012, published 2017)

Experiments:
Assay type in all cases: in vivo, human
[1] = system: perceived sweetness of tomato fruit (consumer panel); assay: Tomato consumer taste panel: perceived sweetness (gLMS) regressed on fruit chemical content; details: for association with sweetness: tomato, univariate models; for t: multiple regression of volatile against perceived sweetness of tomato, independent of the measures of sugar
Experimental: (§1) Sensory analysis. Fully ripe fruit were harvested, and used for taste panels. A random subset of fruit was used for biochemical analysis. Three biological replicates, each consisting of 2-20 fruit (depending on fruit size), were assayed for each variety. […] Panelists were between the ages of 18 and 78 with a median age of 22. […] An average of 85 (range of 66-95) of these panelists evaluated between 4-6 varieties in a session. All panelists went through a training session to familiarize them with the scaling and procedures. Tomatoes were sliced into wedges (or in halves for grape/cherry types) and each panelist was given two pieces for evaluation. Panelists took a bite of each sample, chewed and swallowed it, and rated overall liking and liking for texture. They then rated the perceived intensities of sweetness, sourness, saltiness, umami sensation, bitterness and overall tomato flavor. They were free to take as many bites as necessary to complete the assessments. They were instructed to take a bite of an unsalted cracker and a sip of water between samples. Samples were presented to the panelists in a randomized order. Hedonic ratings used the hedonic gLMS. This scale assesses the liking for tomatoes in the context of all pleasure/displeasure experiences: 0=neutral, −100=strongest disliking of any kind experienced, and +100=strongest liking of any kind experienced. Sensory intensity ratings used the gLMS (7, 8, 19).This scale assesses taste and flavor sensations in the context of all sensory experience (7): 0=no sensation, 100=strongest sensation of any kind experienced. Both scales were devised to provide valid comparisons across subjects.
(§2) Statistical analysis. The 68 chemical compounds measured in this experiment were divided into six groups based upon biochemical properties: sugars, branched chain amino acids, lipids, carotenoids, phenolics, and acids. A small number of compounds for which biosynthetic pathways are not established were assigned to one of the six classes based upon their correlations with other classified compounds. All pairwise correlations among the set of 68 compounds were calculated. Correlation coefficients were sorted using Modulated Modularity Clustering (MMC) (9) as a visual aid for identifying compounds that are closely related in this sample (FIG. 1; Table 4). Biochemical groups were examined for compounds within the group that were highly correlated and compounds that were upstream in the relevant metabolic pathways were preferentially selected.
(§3) All analyses were performed in SAS v 9.2.
In conducting the multiple regression analysis on the tomato data set, the independent variables were the sugar content (glucose+fructose), and the flavor (indicated by the retronasal perception of volatiles), while the dependent variable was the perceived sweetness.

[2] = system: tomato flavor intensity (consumer panel); assay: Tomato consumer taste panel: overall tomato flavor intensity (gLMS) versus fruit chemical content; details: for association with tomato flavor intensity: volatiles with high odor unit values; for association with flavor intensity: univariate models
Experimental: as §1, §2, §3

[3] = system: perceived sweetness intensity of strawberry fruit (consumer panel); assay: Strawberry consumer panel: multiple regression of volatile concentration against perceived sweetness intensity independent of glucose, fructose or sucrose; details: for FRUCTOSE t RATIO: volatile concentration regressed against perceived sweetness intensity independent of fructose; for GLUCOSE t RATIO: volatile concentration regressed against perceived sweetness intensity independent of glucose; for SUCROSE t RATIO: volatile concentration regressed against perceived sweetness intensity independent of sucrose
Experimental: Step-wise multiple regressions of all volatile compounds against perceived intensity of sweetness is performed independent of either glucose, fructose, or sucrose concentration, separately (Table 6).
(§4) All consumer panels were approved by the University of Florida Institutional Review Board. […] Ages of panelist ranged from 18 to 71, with a median age of 24. Panelists self-classified themselves as 98 White or Caucasian, 11 Black or African-American, 1 Native American, Alaska Native or Aleutian, 41 Asian/Pacific Islander, and 15 Other. […] Fresh, fully-ripe strawberry fruit was removed from overnight 4° C. dark storage and allowed to warm to room temperature prior to sensory analysis. Each panelist was given one to two whole strawberries for evaluation, depending on cultivar availability. Panelist took a bite of each sample, chewed, and swallowed it. Ratings for overall liking and liking for texture were scaled on hedonic general labeled magnitude scale (gLMS) in the context of all pleasure/displeasure experiences. […] Scales were employed to mediate valid comparisons across subjects and sessions.
Multiple regressions were performed with the “enter” method in SPSS for identification of sweetness enhancing volatiles. Individual volatile compound concentrations were regressed using the “enter” method in SPSS Statistics (IBM Corp, Armonk, N.Y., USA).

[4] = system: texture liking of strawberry fruit (consumer panel); assay: Strawberry consumer panel: bivariate fit to texture liking; details: bivariate linear fit; X = content of the substance in strawberry fruit, Y = Texture liking
Experimental: as §4
(§5) Bivariate analysis among individual measurements of samples allowed for linear fit, which includes summary of fit, analysis of variance, t-test, and correlation analysis for density ellipse. Two-way Ward hierarchical cluster analysis of all metabolite concentrations and strawberry samples accomplished in JMP.

[5] = system: strawberry flavor intensity (consumer panel); assay: Strawberry consumer panel: bivariate fit to strawberry flavor intensity; details: bivariate linear fit; X = content of the substance in strawberry fruit, Y = Flavor Intensity (FI)
Experimental: as §4, §5

Structure (SMILES): CC1C=CC2C(C1)C2(C)C (stereo not drawn) [4-carene]
- association with sweetness [1]: showed evidence for association with sweetness in univariate models

Structure (SMILES): C/C=C/C(=O)C1=C(C)C=CCC1(C)C [β-damascenone]
- association with tomato flavor intensity [2]: not associated with tomato flavor intensity

Structure (SMILES): COc1ccccc1O [guaiacol]
- association with sweetness [1]: showed evidence for association with sweetness in univariate models

Structure (SMILES): CCCCCCC=O [heptaldehyde]
- association with sweetness [1]: showed evidence for association with sweetness in univariate models

Structure (SMILES): CCC(C)OC(C)=O (stereo not drawn) [sec-butyl acetate]
- association with flavor intensity after accounting for fructose ([2]; listed as 2-butylacetate): independently significant after accounting for fructose

Structure (SMILES): O=C(O)CC(O)(CC(=O)O)C(=O)O [citric acid]
- association with flavor intensity after accounting for fructose [2]: independently significant after accounting for fructose
- association with flavor intensity [2]: associated with flavor intensity in univariate models

Structure (SMILES): O=CCc1ccccc1 [phenylacetaldehyde]
- association with sweetness [1]: showed evidence for association with sweetness in univariate models
- association with flavor intensity [2]: associated with flavor intensity in univariate models
- association with tomato flavor intensity [2]: not associated with tomato flavor intensity

Structure (SMILES): c1ccc2scnc2c1 [benzothiazole]
- association with flavor intensity [2]: associated with flavor intensity in univariate models

Structure (SMILES): O=C(CO)[C@@H](O)[C@H](O)[C@H](O)CO [fructose]
- association with sweetness [1]: showed evidence for association with sweetness in univariate models
- association with flavor intensity [2]: associated with flavor intensity in univariate models

Structure (SMILES): CCC/C=C/C=O [6728-26-3, (2E)-2-hexenal or trans-2-hexenal]
- t [1]: 0.051
- FRUCTOSE t RATIO [3]: 3.349
- GLUCOSE t RATIO [3]: 3.314
- SUCROSE t RATIO [3]: −0.816
- Parameter Estimates-fit to Texture Liking: Estimate [4]: 0.000185
- Parameter Estimates: Estimate [5]: 0.0003625

Structure (SMILES): C=CC(=O)CCCCC [1-octen-3-one]
- association with flavor intensity after accounting for fructose [2]: independently significant after accounting for fructose
- association with flavor intensity [2]: associated with flavor intensity in univariate models

Structure (SMILES): CC/C=C\CCO [cis-3-hexen-1-ol]
- association with sweetness [1]: showed evidence for association with sweetness in univariate models
- association with flavor intensity after accounting for fructose [2]: independently significant after accounting for fructose
- association with flavor intensity [2]: associated with flavor intensity in univariate models

Structure (SMILES): C=CCc1ccc(O)c(OC)c1 [eugenol]
- association with sweetness [1]: showed evidence for association with sweetness in univariate models

Structure (SMILES): CCCCC/C=C/C=C/C=O [trans,trans-2,4-decadienal]
- association with flavor intensity after accounting for fructose [2]: independently significant after accounting for fructose
- association with flavor intensity [2]: associated with flavor intensity in univariate models

Structure (SMILES): CCCCOC(C)=O [123-86-4, butyl acetate]
- association with sweetness [1]: showed evidence for association with sweetness in univariate models
- association with flavor intensity [2]: associated with flavor intensity in univariate models

Structure (SMILES): CCCCCCO [111-27-3]
- FRUCTOSE t RATIO [3]: −1.253
- GLUCOSE t RATIO [3]: −1.481
- SUCROSE t RATIO [3]: −0.542
- Parameter Estimates-fit to Texture Liking: Estimate [4]: −0.01204
- Parameter Estimates: Estimate [5]: −0.001886

Structure (SMILES): CC/C=C\CO [1576-95-0]
- FRUCTOSE t RATIO [3]: −0.186
- GLUCOSE t RATIO [3]: −0.231
- SUCROSE t RATIO [3]: −0.304
- Parameter Estimates-fit to Texture Liking: Estimate [4]: 0.1369
- Parameter Estimates: Estimate [5]: −0.006042

Structure (SMILES): CCCCCCCCC=O [nonyl aldehyde]
- t [1]: 1.148

Structure (SMILES): CSCCC=O [methional]
- association with sweetness [1]: showed evidence for association with sweetness in univariate models
- association with flavor intensity [2]: associated with flavor intensity in univariate models
